Entries after “also recorded” stand apart in the source; their conditions may differ.
Tests used:
caspase 3 = experiment: Caspase-3 activation assay (PE Active Caspase-3 Apoptosis Kit, flow cytometry); format: cell-based, human; parameters: number of caspase-3-positive cells: dose or concentration left out as unconfirmed; settings: PLL cells; for number of cells with active form of caspase 3: 48 h drug exposure, 15 μM
Procedure: Caspase 3 is a main effector caspase which is involved in apoptosis process realization (Miura M., Zhu H., Otello R., Hartwieg E.A., Yuan J. 1993. Induction of apoptosis in fibroblasts by IL-1 beta-converting enzyme, a mammalian homolog of the C. elegans cell death gene ced-3, Cell, 75, 653-660). […] Our analysis, conducted after 48 h drug exposure, confirmed that in PLL cells a high antileukemic potential of adenosine modified at C-2 position with boron cluster is related to apoptosis induction. The number of cells with active form of the enzyme raised after the exposure to compound 3 from 9.4% and 10.6% in control and vehicle control (DMSO), respectively, to 28.5%. Similar effect (20,1%) was observed after the incubation of PLL cells with cladribine at concentration of 15 μM which recursively exceeds its level in serum of patients during antileukemic therapy. […] Of note, compound 5 affected PLL cells weaker than compound 3 which was confirmed by caspase 3 activation in 16.1% of leukemic cells.
The percent of leukemic PBMCs with active form of caspase-3 was measured cytometrically by PE Active Caspase-3 Apoptosis Kit, BD Pharmingen according to manufacturer's protocol. The analyses were conducted after 48 h incubation with/without (control) the agents or DMSO (vehicle control). BD LSR II flow cytometer was used and the analyses were performed using FACSDiva Version 6.1.2 software (see results in FIG. 2).

CLL cells = experiment: Cytotoxicity in leukemic PBMCs from CLL patients; format: cell-based; settings: 24 and 48 h
Procedure: (§1) During the first stage, the cytotoxicity analysis of compounds according to the present invention introduced into the culture medium in increasing concentrations (from 0 μM to 60 μM) against leukemic and healthy peripheral blood mononuclear cells (PBMCs). The goal of this stage was to select the optimal concentrations which would be useful for the further comparative analysis of novel compound with conventional chemotherapeutics, i.e. cladribine and fludarabine, in terms of their antileukemic efficacy. The cytotoxicity of compounds was evaluated in PBMCs isolated from the blood of 5 patients with CLL, 1 with PLL and 5 healthy donors after 24 and 48 h. of incubation. Cell survival was evaluated cytometrically using propidium iodide staining using the Membrane Permeability/Dead Cell Apoptosis assay (propidium iodide+YO-PRO). […] FIG. 1a represents the survival of healthy cells treated with compounds according to the present invention at increasing concentrationsand evaluated using the Membrane Permeability/Dead Cell Apoptosis assay.
(§2) PBMC cells were isolated from peripheral blood using centrifugation via a Histopaque gradient according to the manufacturer's instructions. […] The cytotoxicity was assessed cytometrically after 24 and 48 h incubation.
(§3) Firstly, it was analyzed by propidium iodide staining. […]

normal PBMCs = experiment: Cytotoxicity in normal PBMCs (propidium iodide; Membrane Permeability/Dead Cell Apoptosis Kit); format: cell-based, human; settings: normal PBMCs from healthy donors, 24 and 48 h
Procedure: as §1, §2, §3

PLL cells = experiment: Viability and apoptosis induction in PLL PBMCs (Membrane Permeability/Dead Cell Apoptosis Kit); format: cell-based, human; settings: 15 μM, 1 case of PLL, very preliminary data
Procedure: The 15 μM concentration of the used agents, as safe for normal PBMCs, was selected for further analyses with regard to their apoptosis-inducing potential. The viability and apoptosis induction were examined in cell samples obtained from peripheral blood of 6 patients with leukemia (5 cases of CLL and 1 case of PLL). […] It is worth noting that the agents differed in their apoptosis inducing potential in PLL cells.
Firstly, it was analyzed by propidium iodide staining. Then, Membrane Permeability/Dead Cell Apoptosis Kit (Molecular Probes, Invitrogen™) was used to examine the contribution of apoptosis to cell death induction after exposure to the used agents. The analyses were performed on BD LSR II flow cytometry using FACSDiva Version 6.1.2 software. Ten thousand events were examined for each analysis. The distinction between living (YO-PRO-negative/propidium iodide-negative), early apoptotic (YO-PRO-positive/propidium iodide-negative) and dead (YO-PRO-positive/propiodium iodide-positive) cells was based on the differences in their permeability for fluorescent dyes. The results are shown as the percent of viable and early apoptotic cells in gated PBM cell population, respectively.
For further analyses the concentration of 15 μM of all tested agents was chosen. […]

[1] = test system: PARP-1, Bax, Bcl-2, Mcl-1; experiment: Western blot analysis of apoptosis-related proteins in CLL and PLL cells; format: cell-based, human; settings: 15 μM; for expression level of Bcl-2 in comparison to vehicle control: PBMC samples from Patient 2, 48 h
Procedure: The expression of apoptosis-related proteins was assessed in CLL and PLL cells exposed to the tested agents. All examined adenosine derivatives triggered proteolysis of PARP-1 full length protein (116 kDa) to its cleavage product (89 kDa), which is a known marker of apoptosis. Moreover, altered expression of pro-apoptotic (Bax) and anti-apoptotic proteins (Mcl-1, Bcl-2) from Bcl-2 family was also observed in purine derivative-treated leukemic cells. However, there were some individual differences between basal levels of these apoptotic regulators in model cells, as well as the changes in their cellular levels after the agent exposure were diverse. For instance, there were no significant alterations in Bax/Bcl-2 ratio in cell samples obtained from exemplary patient 1 exposed to the novel nucleosides.
Control PBMCs (without the agents), as well as the cells samples exposed to DMSO (vehicle control) and the tested agents were lysed (4° C., 1 h) in a buffer containing 10 mM Tris-HCl (pH 7.5), 300 mM NaCl, 1% Triton X-100, 2 mM MgCl2, 0.1 M DTT, and protease inhibitors as described previously (A., Kobylinska, J., Bednarek, J. Z., Blonski, M., Hanausek, Z., Walaszek, H., Piekarski, T., Robak, Z. M., Kilianska. 2006. In vitro sensitivity of B-cell chronic lymphocytic leukemia to cladribine and its combinations with mafosfamide and/or mitoxantrone, Oncol. Rep., 16, 1389-1395). Protein content was estimated according to Lowry method (O. H., Lowry, N. J., Rosebrough, A. L., Farr, R. J., Randall. 1951. Protein measurement with the Folin phenol reagent. J. Biol. Chem., 193, 265-275) and the cell lysates were prepared for subsequent Western blotting analysis. Protein samples (60 μg/lane) were separated by SDS polyacrylamide gel electrophoresis (SDS-PAGE) on 8.0 or 12.5% slab gels and electrotransfered onto Immobilon P (H., Towbin, T., Staechlin, J., Gordon, 1979, Electrophoretic transfer of protein from polyacrylamide gels to nitrocellulose sheets: procedure and some applications. Proc. Natl. Acad. Sci. USA, 76, 4350-4354). Membrane staining with 0.5% Ponceau S solution was done to confirm equal protein loading and completeness of the transfer. The membranes were saturated in 5.0% skim milk in TBS (10 mM Tris-HC1, pH 7.5, 150 mM NaC1) for 1 h at ambient temperature, and then incubated overnight with antibodies specific to Mcl -1 (1:1000), Bcl-2 (1:1000), Bax (1:1000), PARP-1 (1:1000), all from Santa Cruz Biotechnology Inc. Antigen recognition was performed with appropriate secondary antibodies conjugated with horseradish peroxidase. The antigen-antibodies complexes were detected with Novex HRP Chromogenic substrate (TMB) from Invitrogen or, alternatively, by chemiluminescence method (see results in FIG. 3).

Compound	number of cells with active form of caspase 3 (caspase 3)	cytotoxicity / anti-leukemic potential against CLL cells (CLL cells)	cytotoxicity against normal PBMCs (normal PBMCs)	anti-leukemic (apoptosis inducing) potential against PLL cells (PLL cells)	expression level of Bcl-2 in comparison to vehicle control [1]	number of caspase-3-positive cells (caspase 3; 48 h) [%]	Bax expression level ([1]; cells from patient 1, 48 h)	Bcl-2 protein level ([1]; cells from patient 1, 48 h)
2-ethynyl-(1,12-dicarba-closo-dodecaboran-2-yl)adenosine [compound 3]	28.5%	smaller anti-leukemic potential against CLL cells than compound 5	less cytotoxic against normal PBMCs; also recorded: lower than fludarabine	very potent against PLL cells; also recorded: even higher than that of cladribine and fludarabine	clear decrease			
8-ethynyl-(1,12-dicarba-closo-dodecaboran-2-yl-2′-deoxyadenosine [compound 5]	16.1%	more cytotoxic in comparison to compound 3			clear decrease			
Nc1nc(Cl)nc2c1ncn2[C@H]1C[C@H](O)[C@@H](CO)O1 [cladribine, reference compound]	20,1%					11.8	essential increase	diminution
Nc1nc(F)nc2c1ncn2[C@@H]1O[C@H](CO)[C@@H](O)[C@@H]1O [fludarabine]	11.8%							

Source: patent US20170216340A1, “A Nucleoside Derivative For Use As A Drug, Particularly For The Treatment Of Chronic Lymphocytic Leukemia” (INSTYTUT BIOLOGII MEDYCZNEJ POLSKIEJ AKADEMII NAUK, priority 2014, published 2017)
